Tested on: Escherichia coli K12 ER1821
Assay: log10 surviving fraction N/N0 (CFU/mL relative to untreated control) (log_unit); higher = more bacterial survival (less inactivation)
Description: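 E. coli K12 ER1821 (mid-exponential, washed in 250 mM sucrose) was exposed to antibiotic at MIC, 3x, 10x or 30x MIC, given a single 1-ms pulse of 0-20 kV/cm, and incubated with the antibiotic at room temperature for <=1 min, 60 min, 160 min or 24 h before dilution. Survivors were counted as CFU by drop plating after overnight growth at 37 C; the value is log10(N/N0) relative to the untreated control (no antibiotic, no pulse), with 3 replicates on different days.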

O=C(O)c1cn(C2CC2)c2cc(N3CCNCC3)c(F)cc2c1=O [ciprofloxacin]
log10 surviving fraction N/N0
Details	antibiotic concentration 0.025 ug/mL	antibiotic concentration 0.075 ug/mL	antibiotic concentration 0.25 ug/mL	antibiotic concentration 0.75 ug/mL
electric pulse amplitude (kV/cm, single 1-ms pulse): 0, post-pulse incubation time: 24 h	-1.23	-2.32	-3.37	-2.76
electric pulse amplitude (kV/cm, single 1-ms pulse): 0, post-pulse incubation time: 60 min	-0.187	-0.389	-1.04	-1.39
electric pulse amplitude (kV/cm, single 1-ms pulse): 0, post-pulse incubation time: 160 min	-0.358	-0.825	-1.78	-2.04
electric pulse amplitude (kV/cm, single 1-ms pulse): 0, post-pulse incubation time: <=1 min	-0.0971	-0.218	-0.361	-0.897
electric pulse amplitude (kV/cm, single 1-ms pulse): 5, post-pulse incubation time: 24 h	-1.2	-2.36	-3.46	-2.88
electric pulse amplitude (kV/cm, single 1-ms pulse): 5, post-pulse incubation time: 60 min	-0.336	-0.615	-1.11	-1.47
electric pulse amplitude (kV/cm, single 1-ms pulse): 5, post-pulse incubation time: 160 min	-0.532	-0.993	-1.87	-2.11
electric pulse amplitude (kV/cm, single 1-ms pulse): 5, post-pulse incubation time: <=1 min	-0.217	-0.161	-0.535	-1.04
electric pulse amplitude (kV/cm, single 1-ms pulse): 10, post-pulse incubation time: 24 h	-1.78	-2.97	-3.49	-3.36
electric pulse amplitude (kV/cm, single 1-ms pulse): 10, post-pulse incubation time: 60 min	-0.593	-1.29	-1.69	-2.16
electric pulse amplitude (kV/cm, single 1-ms pulse): 10, post-pulse incubation time: 160 min	-1.04	-1.73	-2.52	-2.86
electric pulse amplitude (kV/cm, single 1-ms pulse): 10, post-pulse incubation time: <=1 min	-0.507	-0.67	-0.989	-1.83
electric pulse amplitude (kV/cm, single 1-ms pulse): 15, post-pulse incubation time: 24 h	-2.35	-3.37	-3.85	-4.09
electric pulse amplitude (kV/cm, single 1-ms pulse): 15, post-pulse incubation time: 60 min	-1.41	-1.81	-2.34	-2.77
electric pulse amplitude (kV/cm, single 1-ms pulse): 15, post-pulse incubation time: 160 min	-1.62	-2.31	-3.12	-3.27
electric pulse amplitude (kV/cm, single 1-ms pulse): 15, post-pulse incubation time: <=1 min	-1.25	-1.2	-1.55	-2.28
electric pulse amplitude (kV/cm, single 1-ms pulse): 20, post-pulse incubation time: 24 h	-3.05	-3.76	-4.37	-4.6
electric pulse amplitude (kV/cm, single 1-ms pulse): 20, post-pulse incubation time: 60 min	-1.77	-2.25	-2.75	-3.05
electric pulse amplitude (kV/cm, single 1-ms pulse): 20, post-pulse incubation time: 160 min	-1.92	-2.73	-3.31	-3.37
electric pulse amplitude (kV/cm, single 1-ms pulse): 20, post-pulse incubation time: <=1 min	-1.65	-1.77	-2.05	-2.91

Reference: the supplement of paper PMC8558673
